Measurements taken from patent US20250114338A1, “TETRAHYDRO-PYRIDO[3,4-b]INDOLE ESTROGEN RECEPTOR MODULATORS AND USES THEREOF” (Genentech, Inc., priority 2014, published 2025).

Test system: ER-alpha MCF7
Test: ER-alpha MCF7 HCS EC50; stated as measured by in vitro cell proliferation assays of Examples 902 and 903
Assay type: cell-based
Settings: Homo sapiens, MCF7, MCF7 cells; Table 2
Method in brief: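 MCF7 cells seeded 1000-2000 cells/well for 16 h, then treated with nine-point 1:2 DMSO dilution series in quadruplicate at 37 °C, 5% CO2 for 4 days. Viable cells quantified by CellTiter-Glo ATP luminescence; EC50 calculated. Controls: fulvestrant at final 100 nM, DMSO 0.2% v/v.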

SMILES	EC50
C[C@@H]1Cc2c([nH]c3ccccc23)[C@H](c2c(F)cc(NC3CN(CCCF)C3)cc2F)N1S(C)(=O)=O [Example 315, N-[3,5-difluoro-4-[(1S,3R)-3-methyl-2-methylsulfonyl-1,3,4,9-tetrahydropyrido[3,4-b]indol-1-yl]phenyl]-1-(3-fluoropropyl)azetidin-3-amine]	2 nM
C[C@@H]1Cc2c([nH]c3ccccc23)[C@@H](c2c(F)cc(OC3CN(CCCF)C3)cc2F)N1CC(C)(C)C#N [Example 316, 3-[(1R,3R)-1-[2,6-difluoro-4-[1-(3-fluoropropyl)azetidin-3-yl]oxy-phenyl]-3-methyl-1,3,4,9-tetrahydropyrido[3,4-b]indol-2-yl]-2,2-dimethyl-propanenitrile]	0.0724 nM
C[C@@H]1Cc2c([nH]c3ccccc23)[C@@H](c2c(F)cc(OC3CN(CC=C(F)F)C3)cc2F)N1CC(C)(C)F [Example 317, (1R,3R)-1-[4-[1-(3,3-difluoroallyl)azetidin-3-yl]oxy-2,6-difluoro-phenyl]-2-(2-fluoro-2-methyl-propyl)-3-methyl-1,3,4,9-tetrahydropyrido[3,4-b]indole]	0.181 nM
C[C@@H]1Cc2c([nH]c3ccccc23)[C@@H](c2c(F)cc(OCCN3CC(CF)C3)cc2F)N1C[C@@H](CO)C(F)(F)F [Example 318, (S)-2-(((1R,3R)-1-(2,6-difluoro-4-(2-(3-(fluoromethyl)azetidin-1-yl)ethoxy)phenyl)-3-methyl-1,3,4,9-tetrahydro-2H-pyrido[3,4-b]indol-2-yl)methyl)-3,3,3-trifluoropropan-1-ol]	1 nM
C[C@@H]1Cc2c([nH]c3ccccc23)[C@@H](c2c(F)cc(OCCN3CC(CF)C3)cc2F)N1C[C@H](CO)C(F)(F)F [Example 319, (R)-2-(((1R,3R)-1-(2,6-difluoro-4-(2-(3-(fluoromethyl)azetidin-1-yl)ethoxy)phenyl)-3-methyl-1,3,4,9-tetrahydro-2H-pyrido[3,4-b]indol-2-yl)methyl)-3,3,3-trifluoropropan-1-ol]	0.43 nM
C[C@@H]1Cc2c([nH]c3ccccc23)[C@@H](c2c(F)cc(NCCN3CC(CF)C3)cc2F)N1CC(C)(F)CO (stereo partly drawn) [Example 320, 3-((1R,3R)-1-(2,6-difluoro-4-((2-(3-(fluoromethyl)azetidin-1-yl)ethyl)amino)phenyl)-3-methyl-1,3,4,9-tetrahydro-2H-pyrido[3,4-b]indol-2-yl)-2-fluoro-2-methylpropan-1-ol]	0.27 nM
C[C@@H]1Cc2c([nH]c3ccccc23)[C@@H](c2c(F)cc(NCCN3CC(CF)C3)cc2F)N1CC(C)(C)F [Example 321, 3,5-difluoro-N-[2-[3-(fluoromethyl)azetidin-1-yl]ethyl]-4-[(1R,3R)-2-(2-fluoro-2-methyl-propyl)-3-methyl-1,3,4,9-tetrahydropyrido[3,4-b]indol-1-yl]aniline]	0.222 nM
C[C@@H]1Cc2c([nH]c3ccccc23)[C@@H](c2ccc(NCCN3CC(CF)C3)cc2F)N1CC(C)(C)F [Example 322, 3-fluoro-N-[2-[3-(fluoromethyl)azetidin-1-yl]ethyl]-4-[(1R,3R)-2-(2-fluoro-2-methyl-propyl)-3-methyl-1,3,4,9-tetrahydropyrido[3,4-b]indol-1-yl]aniline]	0.0253 nM
C[C@@H]1Cc2c([nH]c3ccccc23)[C@@H](c2ccc(NCCN3CC(CF)C3)cc2)N1CC(C)(C)F [Example 323, N-[2-[3-(fluoromethyl)azetidin-1-yl]ethyl]-4-[(1R,3R)-2-(2-fluoro-2-methyl-propyl)-3-methyl-1,3,4,9-tetrahydropyrido[3,4-b]indol-1-yl]aniline]	0.215 nM
CCS(=O)(=O)N1[C@H](c2ccc(OCCN3CC(CF)C3)cc2)c2[nH]c3ccccc3c2C[C@H]1C [Example 324, (1R,3R)-2-ethylsulfonyl-1-[4-[2-[3-(fluoromethyl)azetidin-1-yl]ethoxy]phenyl]-3-methyl-1,3,4,9-tetrahydropyrido[3,4-b]indole]	0.198 nM
C[C@@H]1Cc2c([nH]c3ccccc23)[C@@H](c2ccc(NCCN3CC(CF)C3)cc2)N1S(C)(=O)=O [Example 325, N-[2-[3-(fluoromethyl)azetidin-1-yl]ethyl]-4-[(1R,3R)-3-methyl-2-methylsulfonyl-1,3,4,9-tetrahydropyrido[3,4-b]indol-1-yl]aniline]	1 nM
C[C@@H]1Cc2c([nH]c3ccccc23)[C@@H](c2c(F)cc(NCCN3CC(CF)C3)cc2F)N1S(C)(=O)=O [Example 326, 3,5-difluoro-N-[2-[3-(fluoromethyl)azetidin-1-yl]ethyl]-4-[(1R,3R)-3-methyl-2-methylsulfonyl-1,3,4,9-tetrahydropyrido[3,4-b]indol-1-yl]aniline]	0.305 nM
C[C@@H]1Cc2c([nH]c3ccccc23)[C@@H](c2ccc(NCCN3CC(CF)C3)cc2F)N1CC(C)(F)CO (stereo partly drawn) [Example 327, 2-fluoro-3-((1R,3R)-1-(2-fluoro-4-((2-(3-(fluoromethyl)azetidin-1-yl)ethyl)amino)phenyl)-3-methyl-1,3,4,9-tetrahydro-2H-pyrido[3,4-b]indol-2-yl)-2-methylpropan-1-ol]	0.347 nM
C[C@@H]1Cc2c([nH]c3ccccc23)[C@@H](c2ccc(NCCN3CC(CF)C3)cc2)N1CC(C)(F)CO (stereo partly drawn) [Example 328, 2-fluoro-3-((1R,3R)-1-(4-((2-(3-(fluoromethyl)azetidin-1-yl)ethyl)amino)phenyl)-3-methyl-1,3,4,9-tetrahydro-2H-pyrido[3,4-b]indol-2-yl)-2-methylpropan-1-ol]	0.167 nM
C[C@@H]1Cc2c([nH]c3ccccc23)[C@@H](c2ccc(OCCN3CC(CF)C3)cc2)N1S(=O)(=O)N(C)C [Example 329, (1R,3R)-1-[4-[2-[3-(fluoromethyl)azetidin-1-yl]ethoxy]phenyl]-N,N,3-trimethyl-1,3,4,9-tetrahydropyrido[3,4-b]indole-2-sulfonamide]	1 nM
C[C@@H]1Cc2c([nH]c3ccccc23)[C@@H](c2ccc(OC3CN(CCCF)C3)cc2)N1S(C)(=O)=O [Example 330, (1R,3R)-1-[4-[1-(3-fluoropropyl)azetidin-3-yl]oxyphenyl]-3-methyl-2-methylsulfonyl-1,3,4,9-tetrahydropyrido[3,4-b]indole]	2 nM
C[C@@H]1Cc2c([nH]c3ccccc23)[C@@H](c2c(F)cc(OC3CN([C@H]4C[C@H](O)C4)C3)cc2F)N1CC(C)(C)F [Example 331, 3-[3-[3,5-difluoro-4-[(1R,3R)-2-(2-fluoro-2-methyl-propyl)-3-methyl-1,3,4,9-tetrahydropyrido[3,4-b]indol-1-yl]phenoxy]azetidin-1-yl]cyclobutanol]	0.236 nM
CC(C)[S@+]([O-])N1[C@H](c2ccc(OCCN3CC(CF)C3)cc2)c2[nH]c3ccccc3c2C[C@H]1C [Example 332, (1R,3R)-1-(4-(2-(3-(fluoromethyl)azetidin-1-yl)ethoxy)phenyl)-2-((S)-isopropylsulfinyl)-3-methyl-2,3,4,9-tetrahydro-1H-pyrido[3,4-b]indole]	8 nM
CC(C)[S@@+]([O-])N1[C@H](c2ccc(OCCN3CC(CF)C3)cc2)c2[nH]c3ccccc3c2C[C@H]1C [Example 333, (1R,3R)-1-(4-(2-(3-(fluoromethyl)azetidin-1-yl)ethoxy)phenyl)-2-((R)-isopropylsulfinyl)-3-methyl-2,3,4,9-tetrahydro-1H-pyrido[3,4-b]indole]	48 nM
C[C@@H]1Cc2c([nH]c3ccccc23)[C@@H](c2c(F)cc(OC3CN([C@H]4C[C@@H](O)C4)C3)cc2F)N1CC(C)(C)F [Example 334, (1S,3s)-3-(3-(3,5-difluoro-4-((1R,3R)-2-(2-fluoro-2-methylpropyl)-3-methyl-2,3,4,9-tetrahydro-1H-pyrido[3,4-b]indol-1-yl)phenoxy)azetidin-1-yl)cyclobutanol]	0.13 nM
C[C@@H]1Cc2c([nH]c3ccccc23)[C@@H](c2c(F)cc(OC3CN(CCCCCF)C3)cc2F)N1CC(C)(C)F [Example 335, (1R,3R)-1-[2,6-difluoro-4-[1-(5-fluoropentyl)azetidin-3-yl]oxy-phenyl]-2-(2-fluoro-2-methyl-propyl)-3-methyl-1,3,4,9-tetrahydropyrido[3,4-b]indole]	0.442 nM
C[C@@H]1Cc2c([nH]c3ccccc23)[C@@H](c2cc(F)c(OC3CN(CCCF)C3)c(F)c2)N1CC(C)(C)F [Example 336, (1R,3R)-1-[3,5-difluoro-4-[1-(3-fluoropropyl)azetidin-3-yl]oxy-phenyl]-2-(2-fluoro-2-methyl-propyl)-3-methyl-1,3,4,9-tetrahydropyrido[3,4-b]indole]	0.263 nM
C[C@@H]1Cc2c([nH]c3ccccc23)[C@@H](c2c(F)cc(OC3CN(CCCCF)C3)cc2F)N1CC(C)(C)F [Example 337, (1R,3R)-1-[2,6-difluoro-4-[1-(4-fluorobutyl)azetidin-3-yl]oxy-phenyl]-2-(2-fluoro-2-methyl-propyl)-3-methyl-1,3,4,9-tetrahydropyrido[3,4-b]indole]	0.387 nM
C[C@@H]1Cc2c([nH]c3ccccc23)[C@@H](c2cc(F)c(OC3CN(CCCCCF)C3)c(F)c2)N1CC(C)(C)F [Example 338, (1R,3R)-1-[3,5-difluoro-4-[1-(5-fluoropentyl)azetidin-3-yl]oxy-phenyl]-2-(2-fluoro-2-methyl-propyl)-3-methyl-1,3,4,9-tetrahydropyrido[3,4-b]indole]	1 nM
C[C@@H]1Cc2c([nH]c3ccccc23)[C@@H](c2cc(F)c(OC3CN(CCCF)C3)cc2F)N1CC(C)(C)F [Example 339, (1R,3R)-1-[2,5-difluoro-4-[1-(3-fluoropropyl)azetidin-3-yl]oxy-phenyl]-2-(2-fluoro-2-methyl-propyl)-3-methyl-1,3,4,9-tetrahydropyrido[3,4-b]indole]	1 nM
C[C@@H]1Cc2c([nH]c3ccccc23)[C@@H](c2c(F)cc(NC3CN(CCCF)C3)cc2F)N1CC(F)(F)CO [Example 340, 3-[(1R,3R)-1-[2,6-difluoro-4-[[1-(3-fluoropropyl)azetidin-3-yl]amino]phenyl]-3-methyl-1,3,4,9-tetrahydropyrido[3,4-b]indol-2-yl]-2,2-difluoro-propan-1-ol]	0.203 nM
